Experimental data reported in patent publication US10710962B2, “Zwitterionic reagents” (Siemens Healthcare Diagnostics Inc., priority 2010, dated 2020).

Target: T1, BSA-NSP-DMAE (Bos taurus, UniProt P02769)
T1 construct: NSP-DMAE acridinium ester (chemical label attached through an amine-reactive NHS ester, about 1.4 per molecule)
Assay: Zwitterion label incorporation into acridinium ester labeled BSA, measured by MALDI-TOF mass spectroscopy
Design: species or system bovine
Protocol: The zwitterion-containing compounds of the present invention may also be useful for lowering the non-specific binding of hydrophobic and ‘sticky’ proteins. In one experiment, the chemical competency of certain exemplary amine-reactive zwitterion-containing compounds shown in FIG. 1 were evaluated by treating an acridinium ester (e.g., 2′,6′-Dimethyl-4′-(N-succinimidyloxycarbonyl)phenyl 10-Methyl-9-acridinecarboxylate Methylsulfate (NSP-DMAE) or other suitable acridinium esters described by Law et al. in U.S. Pat. No. 5,656,426, which is incorporated herein by reference) labeled bovine serum albumin (BSA) or bovine gamma globulin (BGG) with 10 and 20 equivalents of the zwitterion-containing compound followed by measurement of the zwitterion-containing compound incorporation by mass spectroscopy. The detailed experimental protocol is described in Example 15.
A solution of BSA (4 mg, 60 nmoles) in 1 mL of 0.1 M sodium bicarbonate was treated with 5 equivalents of 2′,6′-Dimethyl-4′-(N-succinimidyloxycarboxnyl)phenyl 10-(3′-Sulfopropyl)-acridinium-9-carboxylate (NSP-DMAE-NHS) added as a solution in DMF (72 μL of a 2 mg/mL solution in DMF). The reaction was stirred at room temperature for 4 hours. The reaction was then transferred to a 4 mL amicon filter (MW 30,000 cutoff) and diluted with 3 mL de-ionized water. The filter was centrifuged at 4000G for 8 minutes to reduce the volume to about 0.25 mL. The final conjugate was diluted to 0.8 mL with de-ionized water to give a 5 mg/mL solution. Acridinium ester label incorporation, measured by MALDI-TOF mass spectroscopy using sinnapinic acid as matrix indicated the incorporation of 1.4 labels.
Further labeling of the acridinium ester-labeled BSA conjugate with the zwitterion labels 1d, 2c, 3c and 4c was carried out as follows. The conjugate (0.5 mg, 7.5 nmoles, 100 μL) was diluted with 100 μL of sodium carbonate, pH 9. To this conjugate, in four separate reactions, was added 10 equivalents of the four zwitterion labels 1d, 2c, 3c and 4c dissolved in DMSO corresponding to 12.8 μL of a 2.5 mg/mL solution of 1d; 16.5 μL of a 2 mg/mL solution of 2c; 16.5 μL of a 2 mg/mL solution of 3c and 14 μL of a 2.5 mg/mL solution of 4c. The reactions were stirred at room temperature for 4 hours and were then processed as described above.

T1 sequence (P02769 25-607): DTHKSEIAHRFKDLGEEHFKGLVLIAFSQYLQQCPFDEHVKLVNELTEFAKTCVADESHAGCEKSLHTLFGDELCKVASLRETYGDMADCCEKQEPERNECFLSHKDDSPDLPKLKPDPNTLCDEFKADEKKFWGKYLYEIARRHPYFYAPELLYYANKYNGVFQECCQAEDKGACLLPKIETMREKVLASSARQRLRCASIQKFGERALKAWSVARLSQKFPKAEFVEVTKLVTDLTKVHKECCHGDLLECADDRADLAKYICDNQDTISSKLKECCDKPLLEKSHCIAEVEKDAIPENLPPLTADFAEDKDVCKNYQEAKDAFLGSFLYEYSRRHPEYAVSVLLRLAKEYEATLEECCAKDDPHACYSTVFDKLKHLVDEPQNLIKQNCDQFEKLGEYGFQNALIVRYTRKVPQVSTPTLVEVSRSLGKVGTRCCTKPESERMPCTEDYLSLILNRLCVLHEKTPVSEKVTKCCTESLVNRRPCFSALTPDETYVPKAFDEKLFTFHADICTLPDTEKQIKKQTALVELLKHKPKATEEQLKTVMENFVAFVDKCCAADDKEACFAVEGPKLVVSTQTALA

Row | Structure (SMILES) | # of Zwitterion-Containing Compounds Incorporated by Conjugate (input 10 equivalents) | # of Zwitterion-Containing Compounds Incorporated by Conjugate (input 20 equivalents)
1 | C[N+](C)(CCCC(=O)Oc1c(F)c(F)c(F)c(F)c1F)CCS(=O)(=O)[O-] [Compound 1d] | 5 | 
2 | C[N+](C)(CCCC(=O)Oc1c(F)c(F)c(F)c(F)c1F)CCCS(=O)(=O)[O-] [Compound 2c] | 5 | 8
3 | C[N+](C)(CCCCS(=O)(=O)[O-])CCCC(=O)Oc1c(F)c(F)c(F)c(F)c1F [Compound 3c] | 3.3 | 
4 | CCCOP(=O)([O-])OCC[N+](C)(C)CCCC(=O)Oc1c(F)c(F)c(F)c(F)c1F [Compound 4c] | 3.4 | 7.1
